{
  "source": "patent US9855320B2",
  "about": "“Angiogenin for treatment of glaucoma” (CHUNG-ANG UNIVERSITY INDUSTRY-ACADEMIC COOPERATION …, priority 2011, dated 2018)",
  "key": {"[1]": {"test_system": "corneal chemical burn model", "test": "Corneal chemical burn model: corneal opacity and corneal neoangiogenesis on anterior ocular segment images", "type": "in vivo, rat", "experimental": "Regarding 20 eyes of 20 rats, filter paper was cut to a round shape having a diameter of 4 mm and completely wet with NaOH, and then, placed on corneal and conjunctiva with upper corneal limbus therebetween for 6 seconds, and then, the eyes were washed. 10 eyes of the 10 rats were treated with angiogenin 10 μl four times a day at time intervals of 6 hours two days before test, and even after the NaOH injury, treated 4 times a day. The remaining 10 eyes were treated with physiological saline two days before the injury in the same manner as used with angiogenin. Angiogenin and physiological saline were all administered only up to 7 days after injuring.\n(§1) Three days, and 1, 2, 4, and 8 weeks after injuring, corneal opacity and neoangiogenesis level were assessed in consideration of images of anterior ocular segment, and on the third day and the seventh day, the respective conjunctiva damaged parts were collected and then subjected to a reverse transcription polymerase chain reaction to assay expression of IL-1a, TGF-β, SDF-1, and caspase-3.\nOn the corneal neoangiogenesis image, the region where blood vessel was grown was divided in the wedge shape at intervals of 1 hour while the corneal peak was used as a reference, and an area thereof was calculated, and the area was calculated according to this equation: A=C/12×3.1416 [r^2−(r−l)^2]. (A: new vessel area, C: time occupied when divided by 12 hours, r: corneal […], and l: vascular grown length)"}, "TGF-β": {"test_system": "TGF-β", "test": "Reverse transcription polymerase chain reaction on injured tissue of corneal chemical burn model, TGF-β", "type": "in vivo, rat", "settings": "third day and seventh day after keratoconjunctival chemical injury", "experimental": "as §1\nTissues obtained from chronic intraocular pressure increase model and corneal chemical burn model were frozen, and then cut into small parts by using a fine knife. The tissue parts were treated with 1 ml of TRI reagent (Molecular Research Center, Inc.) and then, tissue and cell were lysed by homogenizer. The respective implication cDNA […] 0.2 mM dNTP, 10×buffer, 10 pmols primer, and 0.2 U Taq polymerase were mixed to obtain a volume of 20 μl, and then, PCR thermal cycler (a machine for PCR) was used for reaction for 5 minutes at 95° C., 40 second at 94° C., 40 seconds at 48 to 64° C., 40 seconds (35 cycles) at 72° C., and 10 minutes at 72° C. The amplified polymerase chain reaction product was identified by 1% agarose gel electrophoresis. β actin was used as a positive control for the polymerase chain reaction, and relative expression morphs of a target gene with respect to β actin expression were compared. […]"}, "[2]": {"settings": "from 2 weeks after the injury to 8 weeks"}},
  "data": [
    {"substance": "angiogenin: recombinant human angiogenin (R&D systems); 14.4 kDa single chain protein of 123 amino acids, a ribonuclease inducing angiogenesis", "values": [
      {"measurement": "corneal opacity compared to the control", "setting": "[1]; [2]", "result": "significantly low"},
      {"measurement": "corneal opacity grade (most of the group)", "setting": "[1]; [2]", "result": "grade 1 or grade 2"},
      {"measurement": "corneal new vessel area", "setting": "[1]; on the second week after injury", "result": "did not change"},
      {"measurement": "corneal opacity compared to the control", "setting": "[1]; up to the seventh day after injury", "result": "no significant difference"},
      {"measurement": "TGF-β expression compared to the control", "setting": "TGF-β", "result": "less expressed"}
    ]}
  ]
}
